Test results published in publication PMC11589570, “Critical assessment of LC3/GABARAP ligands used for degrader development and ligandability of LC3/GABARAP binding pockets” (Nature Communications, 2024).
Where “and” joins values, the source holds several entries; their conditions need not be identical. Equal values may be shown once. Entries after “also recorded” stand apart in the source; their conditions may differ. Read-outs that look alike come from different tables or passages of the source.

What was measured:
GABARAPL2 = GABARAPL2 (Homo sapiens, UniProt P60520); conditions: GABARAPL2:ligand molar ratio 1:2
Sequence of GABARAPL2 (P60520 whole entry): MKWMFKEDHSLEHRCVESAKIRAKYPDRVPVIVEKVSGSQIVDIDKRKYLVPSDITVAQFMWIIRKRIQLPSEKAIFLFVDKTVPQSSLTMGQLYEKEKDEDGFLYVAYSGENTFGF

U2OS cells = assay: Cell growth assay (IncuCyte confluence over 72 h); assay type: cell-based; design: key to U2OS cell growth: % of well area covered by cells (confluence); conditions: for U2OS cell growth: listed as 8F20
Experimental: Cell growth assay: Cell confluence (phase) from RPE1 (hTERT RPE-1, ATCC CLR_4000) or U2OS (ATCC, HTB-96) cell lines were monitored over time with the IncuCyte S3 (Sartiorius, Germany) in 384-well plates in 50 ul DMEM media, supplemented with 10% Fetal Bovine Serum (FBS) 1% penicillin/Streptomycin and incubated 24 h before treatment. Experiment was performed as described in Cano-Franco et al.. […] Cell confluence is represented as % of area covered by cells. Each data point represents the average ratio or confluence obtained from three individual wells of the plate.

## Cc1ccc(C(=O)N(CCCN)[C@@H](c2nc3cc(Cl)ccc3c(=O)n2Cc2ccccc2)C(C)C)cc1 [compound 3, (R)-N-(3-aminopropyl)-N-(1-(3-benzyl-7-chloro-4-oxo-3,4-dihydroquinazolin-2-yl)−2-methylpropyl)−4-methylbenzamide]
GABARAPL2; residue A19
  CSP: 0.00171 ppm
GABARAPL2; residue A23
  CSP: 0.00424 ppm
GABARAPL2; residue A58
  CSP: 0.00148 ppm
GABARAPL2; residue A75
  CSP: 0.002 ppm
GABARAPL2; residue A108
  CSP: 0.000762 ppm
GABARAPL2; residue C15
  CSP: 0.004 ppm
GABARAPL2; residue D8
  CSP: 0.00263 ppm
GABARAPL2; residue D27
  CSP: 0.00158 ppm
GABARAPL2; residue D43
  CSP: 0.00251 ppm
GABARAPL2; residue D45
  CSP: 0.003 ppm
GABARAPL2; residue D54
  CSP: 0.000849 ppm
GABARAPL2; residue D81
  CSP: 0.00228 ppm
GABARAPL2; residue D100
  CSP: 0.00228 ppm
GABARAPL2; residue D102
  CSP: 0.00165 ppm
GABARAPL2; residue E7
  CSP: 0.00472 ppm
GABARAPL2; residue E12
  CSP: 0.00142 ppm
GABARAPL2; residue E17
  CSP: 0.000762 ppm
GABARAPL2; residue E34
  CSP: 0.009 ppm
GABARAPL2; residue E73
  CSP: 0.000762 ppm
GABARAPL2; residue E96
  CSP: 0.000707 ppm
GABARAPL2; residue E98
  CSP: 0.00122 ppm
GABARAPL2; residue E101
  CSP: 0.002 ppm
GABARAPL2; residue E112
  CSP: 0.0017 ppm
GABARAPL2; residue F60
  CSP: 0.005 ppm
GABARAPL2; residue F77
  CSP: 0.000283 ppm
GABARAPL2; residue F79
  CSP: 0.002 ppm
GABARAPL2; residue F104
  CSP: 0.0075 ppm
GABARAPL2; residue F115
  CSP: 0.005 ppm
GABARAPL2; residue G38
  CSP: 0.005 ppm
GABARAPL2; residue G103
  CSP: 0.00213 ppm
GABARAPL2; residue G111
  CSP: 0.00847 ppm
GABARAPL2; residue G116
  CSP: 0.0024 ppm
GABARAPL2; residue H9
  CSP: 0.010 ppm
GABARAPL2; residue H13
  CSP: 0.0011 ppm
GABARAPL2; residue I21
  CSP: 0.00184 ppm
GABARAPL2; residue I32
  CSP: 0.00354 ppm
GABARAPL2; residue I41
  CSP: 0.011 ppm
GABARAPL2; residue I44
  CSP: 0.00216 ppm
GABARAPL2; residue I55
  CSP: 0.000762 ppm
GABARAPL2; residue I63
  CSP: 0.004 ppm
GABARAPL2; residue I64
  CSP: 0.00283 ppm
GABARAPL2; residue I68
  CSP: 0.008 ppm
GABARAPL2; residue I76
  CSP: 0.000707 ppm
GABARAPL2; residue K2
  CSP: 0.008 ppm
GABARAPL2; residue K6
  CSP: 0.007 ppm
GABARAPL2; residue K20
  CSP: 0.000707 ppm
GABARAPL2; residue K24
  CSP: 0.001 ppm
GABARAPL2; residue K35
  CSP: 0.004 ppm
GABARAPL2; residue K46, estimated
  CSP: 0.010 ppm
GABARAPL2; residue K48
  CSP: 0.022 ppm
GABARAPL2; residue K66
  CSP: 0.00142 ppm
GABARAPL2; residue K74
  CSP: 0.000906 ppm
GABARAPL2; residue K97
  CSP: 0.00113 ppm
GABARAPL2; residue K99
  CSP: 0.00144 ppm
GABARAPL2; residue L11
  CSP: 0.000762 ppm
GABARAPL2; residue L50
  CSP: 0.00216 ppm
GABARAPL2; residue L70
  CSP: 0.0019 ppm
GABARAPL2; residue L78
  CSP: 0.00212 ppm
GABARAPL2; residue L105
  CSP: 0.00283 ppm
GABARAPL2; residue M1
  CSP: 0.006 ppm
GABARAPL2; residue M61
  CSP: 0.00221 ppm
GABARAPL2; residue N113
  CSP: 0.000141 ppm
GABARAPL2; residue P26, estimated
  CSP: 0.002 ppm
GABARAPL2; residue P30, estimated
  CSP: 0.002 ppm
GABARAPL2; residue P52, estimated
  CSP: 0.002 ppm
GABARAPL2; residue P71, estimated
  CSP: 0.002 ppm
GABARAPL2; residue Q40
  CSP: 0.00659 ppm
GABARAPL2; residue Q59
  CSP: 0.000424 ppm
GABARAPL2; residue Q69
  CSP: 0.0011 ppm
GABARAPL2; residue R14
  CSP: 0.003 ppm
GABARAPL2; residue R22
  CSP: 0.00649 ppm
GABARAPL2; residue R28
  CSP: 0.00232 ppm
GABARAPL2; residue R47, estimated
  CSP: 0.015 ppm
GABARAPL2; residue R65
  CSP: 0.0022 ppm
GABARAPL2; residue R67
  CSP: 0.003 ppm
GABARAPL2; residue S10
  CSP: 0.008 ppm
GABARAPL2; residue S18
  CSP: 0.00146 ppm
GABARAPL2; residue S37
  CSP: 0.005 ppm
GABARAPL2; residue S39
  CSP: 0.00232 ppm
GABARAPL2; residue S53
  CSP: 0.002 ppm
GABARAPL2; residue S72
  CSP: 0.00122 ppm
GABARAPL2; residue S110
  CSP: 0.000825 ppm
GABARAPL2; residue T56
  CSP: 0.00133 ppm
GABARAPL2; residue T114
  CSP: 0.0017 ppm
GABARAPL2; residue V16
  CSP: 0.000141 ppm
GABARAPL2; residue V29
  CSP: 0.00214 ppm
GABARAPL2; residue V31
  CSP: 0.00444 ppm
GABARAPL2; residue V33
  CSP: 0.00281 ppm
GABARAPL2; residue V36
  CSP: 0.00638 ppm
GABARAPL2; residue V42
  CSP: 0.00652 ppm
GABARAPL2; residue V51
  CSP: 0.00319 ppm
GABARAPL2; residue V57
  CSP: 0.00127 ppm
GABARAPL2; residue V80
  CSP: 0.00281 ppm
GABARAPL2; residue V107
  CSP: 0.005 ppm
GABARAPL2; residue W3
  CSP: 0.007 ppm
GABARAPL2; residue W62
  CSP: 0.0057 ppm
GABARAPL2; residue Y25
  CSP: 0.00742 ppm
GABARAPL2; residue Y49
  CSP: 0.010 ppm
GABARAPL2; residue Y106
  CSP: 0.00214 ppm
GABARAPL2; residue Y109
  CSP: 0.00263 ppm
U2OS cells; 100 nM, time 34 h
  U2OS cell growth: 22.2522 and 20.3197 and 25.5047
U2OS cells; 100 nM, time 36 h
  U2OS cell growth: 25.043 and 22.9919 and 27.5453
U2OS cells; 100 nM, time 38 h
  U2OS cell growth: 34.8117 and 27.203 and 36.419
U2OS cells; 100 nM, time 40 h
  U2OS cell growth: 28.7682 and 25.0593 and 31.2523
U2OS cells; 100 nM, time 42 h
  U2OS cell growth: 28.8457 and 26.5057 and 32.2617
U2OS cells; 100 nM, time 44 h
  U2OS cell growth: 31.3439 and 34.6421 and 31.7152
U2OS cells; 100 nM, time 46 h
  U2OS cell growth: 34.3656 and 30.4353 and 36.3708
U2OS cells; 500 nM, time 34 h
  U2OS cell growth: 26.6194 and 31.3484 and 27.2425
U2OS cells; 500 nM, time 36 h
  U2OS cell growth: 31.7612 and 33.804 and 33.4668
U2OS cells; 500 nM, time 38 h
  U2OS cell growth: 33.118 and 34.4569 and 30.251
U2OS cells; 500 nM, time 40 h
  U2OS cell growth: 39.6842 and 38.1992 and 33.6035
U2OS cells; 500 nM, time 42 h
  U2OS cell growth: 36.1441 and 40.2893 and 34.3307
U2OS cells; 500 nM, time 44 h
  U2OS cell growth: 39.8612 and 39.5559 and 35.4494
U2OS cells; 1 uM, time 34 h
  U2OS cell growth: 32.3197 and 36.2486 and 28.9643
U2OS cells; 1 uM, time 36 h
  U2OS cell growth: 35.3333 and 38.6378 and 32.1258
U2OS cells; 1 uM, time 38 h
  U2OS cell growth: 37.1941 and 39.9036 and 33.4921
U2OS cells; 1 uM, time 40 h
  U2OS cell growth: 42.2479 and 44.6121 and 35.334
U2OS cells; 1 uM, time 42 h
  U2OS cell growth: 42.2672 and 42.3728 and 37.7313
U2OS cells; 1 uM, time 44 h
  U2OS cell growth: 41.5555 and 43.3678 and 38.4367
U2OS cells; 1 uM, time 46 h
  U2OS cell growth: 37.0733
U2OS cells; 3 uM, time 34 h
  U2OS cell growth: 24.9204 and 26.3201 and 25.7719
U2OS cells; 3 uM, time 36 h
  U2OS cell growth: 25.7351 and 27.3161 and 28.6407
U2OS cells; 3 uM, time 38 h
  U2OS cell growth: 25.9027 and 26.3122 and 27.7775
U2OS cells; 3 uM, time 40 h
  U2OS cell growth: 26.2298 and 26.2214 and 29.7472
U2OS cells; 3 uM, time 42 h
  U2OS cell growth: 25.5977 and 26.3382 and 29.6536
U2OS cells; 3 uM, time 44 h
  U2OS cell growth: 26.2297 and 25.3695 and 28.5871
U2OS cells; 3 uM, time 46 h
  U2OS cell growth: 24.6522 and 24.6058 and 27.1829
U2OS cells; 5 uM, time 34 h
  U2OS cell growth: 28.2897 and 22.3175 and 29.2635
U2OS cells; 5 uM, time 36 h
  U2OS cell growth: 23.4225 and 23.0973 and 22.2621
U2OS cells; 5 uM, time 38 h
  U2OS cell growth: 33.3374 and 20.2415 and 36.6497
U2OS cells; 5 uM, time 40 h
  U2OS cell growth: 36.8034 and 23.7173 and 40.6411
U2OS cells; 5 uM, time 42 h
  U2OS cell growth: 29.192 and 24.8481 and 31.1144
U2OS cells; 5 uM, time 44 h
  U2OS cell growth: 25.7303 and 24.4958 and 26.8332
U2OS cells; 5 uM, time 46 h
  U2OS cell growth: 31.8475 and 23.3649 and 37.1335
U2OS cells; U2OS, 72 h
  effect on cell growth (confluence): significant growth inhibition in all tested concentrations; also recorded: strongly suppressed cellular growth
